Test results reported in patent publication US20240000950A1, “THERAPEUTIC CURE-PRO COMPOUNDS FOR TARGETED DEGRADATION OF BET DOMAIN PROTEINS, AND METHODS OF MAKING AND USING THEM” (CORNELL UNIVERSITY, priority 2020, published 2024).
“Also recorded” adds a separate entry of the source.

Experiments:
Format in all cases: cell-based
[1] = system: caspase 3/7 activity in Namalwa cells; test: Caspase-Glo 3/7 assay, Namalwa cells; conditions: 24 h, co-treated with VHL ligand VHL298
Protocol: All cell lines were purchased from ATCC or DSMZ and grown at 37° C. with 5% C02. […]
(§1) Caspase-glo® assay (Promega) was conducted following the manufacturer's recommendations. […] After a 24 h incubation, 100 μl of the […] substrate was added per well and luminescence was read on a Spectramax M5 (Molecular Devices).
Namalwa cells (5×104) were treated for 24 hours with the compounds solubilized in DMSO. FIG. 57 is a bar graph depiction of fold increase of apoptosis assessed via caspase 3/7 activity using the Caspase-Glo assay (Promega) described above.
(§2) Molm-13 (FIG. 76A) or Namalwa (FIG. 76B) cells (5×104) were treated for 24 hours with the compounds solubilized in DMSO in white 96 well plates (10 nM-10 μM solubilized in DMSO). FIG. 76 is a bar graph depiction of fold increase of apoptosis assessed via caspase 3/7 activity using the Caspase-Glo assay (Promega) described above.

[2] = system: caspase 3/7 activity in MOLM13 cells; test: Caspase-Glo 3/7 assay, Molm-13 cells; conditions: 24 h, co-treated with VHL ligand VHL298
Protocol: (§3) All cell lines were purchased from ATCC or DSMZ and grown at 37° C. with 5% C02. Human HeLa cells were cultured in complete growth medium (Dulbecco's modified Eagle's medium (DMEM) supplemented with 10% FBS); MCF7 cells were cultured in complete growth medium (Dulbecco's modified Eagle's medium (DMEM) supplemented with 10% FBS and 0.01 mg/ml human recombinant insulin (Sigma Aldrich); Namalwa and MOLM-13 cells were cultured in complete growth medium (RPMI 1640 medium supplemented with 10% FBS); MV-4-11 were cultured in complete growth medium (Iscove's Modified Dulbecco's medium, supplemented with 10% FBS); HCT116 cells were cultured in complete growth medium (McCoy's 5a Medium supplemented with 10% FBS). […]
as §1, §2

Molm-13 cells = test: CellTiter-Glo cell viability, Molm-13 cells
Protocol: as §3
CellTiter-Glo® 2.0 Cell Viability Assay (Promega) was carried out following the manufacturer's recommendations. […] After a 72 h incubation, 100 ul of the CellTiter-Glo® substrate was added per well and luminescence was read on a Spectramax M5 (Molecular Devices). […]
Molm-13 cells (1×104) were treated for 24 (FIG. 77A) or 72 (FIG. 77B) hours were treated in white 96 well plates with the compounds (10 nM-10 μM solubilized in DMSO). After indicated times cell viability was assessed using the CellTiter-Glo® Luminescent Cell Viability Assay (Promega) and the signal detected on a SpectraMax M5 (Molecular Devices).

BRD4 [3] = target: T1, BRD4 (Homo sapiens, UniProt O60885); test: CURE-PRO-mediated BRD4 degradation in MCF7 cells with VHL ligands, WES (ProteinSimple); parameters: endogenous in cells; host or cells: HeLa, MCF7 or HCT116
Protocol: as §3, with “FBS). For cellular degradation of BRD4 studies, cells were seeded in a 12-well plate at 70-80% confluency, allowed to attach overnight, and incubated with the indicated compounds for the indicated time.” for “FBS).”
WES Simple analysis was performed on WES system (ProteinSimple-Biotechne) according to the manufacturer's instructions. Total protein concentrations of cell lysates were determined by the Pierce BCA kit (Thermo Fisher). […]
MCF7 cells (3×10^6) were treated for 4-24 hours continually (FIG. 72), or treated for 4 h, washed and incubated for a further 4-24 h with the compounds solubilized in DMSO. […] The total protein concentration was quantified by the BCA method (ThermoFisher Sciences). […]

BRD4 [4] = target: T1, BRD4; test: Summary of E3 ligase directed degradation of BRD4, estimated from Western Blot or WES (Tables 1-6); parameters: endogenous in cells; host or cells: HeLa, MCF7 or HCT116; conditions: Table 3; aromatic 1,2-diol-containing VHL ligand drawn as drawing 442 (by the text apparently 8305)
Procedure, shortened: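 HeLa, MCF7 or HCT116 cells treated 24 h with compounds in DMSO, lysed in RIPA buffer; BRD4 levels read by Western blot (ECL detection) or capillary WES with HRP detection. Check mark denotes 30% to 70% or higher protein degradation.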

SMILES: CCNC(=O)C[C@@H]1N=C(c2ccc(Cl)cc2)c2cc(B(O)O)ccc2-n2c(C)nnc21 [BRD-E50, ((4S)-6-(4-chlorophenyl)-4-(2-(ethylamino)-2-oxoethyl)-1-methyl-4H-benzo[f][1,2,4]triazolo[4,3-a] [1,4]diazepin-8-yl)boronic acid]
- caspase 3/7 activity [1]: does not increase caspase activity
- caspase 3/7 activity [2]: does not increase caspase activity
- loss of cell viability (CellTiter-Glo) (Molm-13 cells; 24 h and 72 h, 10 nM-10 μM, co-dosed 1:1 with VHL ligand 8305): marked loss in cell viability; also recorded: a greater loss of cell viability
- cell viability (CellTiter-Glo) (Molm-13 cells; co-treated with VHL ligand VHL298): decreases levels of cell viability to similar levels of BRD-E50 treatment alone
- BRD4 degradation after pre-incubation with VHL298 (BRD4 [3]; 10 μM each with VHL ligand 8305, VHL298 preincubated at equimolar concentration): attenuates CURE-PRO mediated BRD4 degradation; also recorded: No degradation is noted; also recorded: inhibited CURE-PRO mediated degradation; also recorded: inhibits the degradation of BRD4
- BRD4 degradation (BRD4 [3]; 10 μM each, 1:1 with VHL ligand 8305, 4-24 h, with washout where stated): directs degradation of BRD4 as early as 4 h, with sustained degradation 24 h after wash out; also recorded: marked BRD4 degradation after 4 h with sustained degradation for up to 8 h after drugs are washed out
- Degradation of BRD4, combination with VHL ligand [drawing 442] (BRD4 [4]): ✓ (A black check mark indicates efficacy of 30% to 70% or higher protein degradation)
